For experiment [1], the target named is T1, Progesteronrezeptor (Oryctolagus cuniculus, UniProt P06186).
T1 construct: Uterus-Cytosol, Kaninchen, geprimt; from tissue; host or cells: uterus cytosol of primed rabbits
T1 sequence (P06186 1-930): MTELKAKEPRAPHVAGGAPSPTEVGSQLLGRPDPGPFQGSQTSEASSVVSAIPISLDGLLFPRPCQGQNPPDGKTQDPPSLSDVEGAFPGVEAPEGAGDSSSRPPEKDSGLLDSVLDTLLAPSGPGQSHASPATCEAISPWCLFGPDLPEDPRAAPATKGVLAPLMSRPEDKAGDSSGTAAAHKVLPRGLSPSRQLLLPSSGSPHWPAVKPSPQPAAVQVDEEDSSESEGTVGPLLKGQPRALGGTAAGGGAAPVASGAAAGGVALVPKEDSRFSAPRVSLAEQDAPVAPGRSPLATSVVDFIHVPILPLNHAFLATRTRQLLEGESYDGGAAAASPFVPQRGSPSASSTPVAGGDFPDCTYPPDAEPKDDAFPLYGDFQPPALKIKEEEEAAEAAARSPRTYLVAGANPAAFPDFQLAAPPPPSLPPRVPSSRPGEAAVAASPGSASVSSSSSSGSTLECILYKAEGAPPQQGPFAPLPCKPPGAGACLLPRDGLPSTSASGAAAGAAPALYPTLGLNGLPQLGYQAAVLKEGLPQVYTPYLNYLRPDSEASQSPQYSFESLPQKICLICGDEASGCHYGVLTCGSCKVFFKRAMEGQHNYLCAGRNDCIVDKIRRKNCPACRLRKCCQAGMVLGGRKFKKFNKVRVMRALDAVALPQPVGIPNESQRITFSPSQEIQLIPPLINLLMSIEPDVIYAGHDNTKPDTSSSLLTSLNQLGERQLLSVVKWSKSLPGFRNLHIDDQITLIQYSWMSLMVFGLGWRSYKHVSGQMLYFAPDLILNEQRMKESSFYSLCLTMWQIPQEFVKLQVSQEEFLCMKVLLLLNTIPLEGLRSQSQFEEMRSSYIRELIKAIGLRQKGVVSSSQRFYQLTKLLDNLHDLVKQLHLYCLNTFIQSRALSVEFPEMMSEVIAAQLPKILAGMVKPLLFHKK
The experiment in a line: Binding to the progesterone receptor (relative binding affinity, tracer 3H-ORG 2058). The settings on record: Uterus-Cytosol, Kaninchen, geprimt, 0-4°C, 18 h, Referenzsubstanz Progesteron = 100%. The text has this: Bindung der Verbindung I an den Progesteronrezeptor

The target in experiment [2] is T2, 5α-Reduktase-Typ2 (Homo sapiens, UniProt P31213).
T2 construct: In Genitalhaut-Homogenaten unter optimierten Bedingungen bei pH 5.5; from tissue; host or cells: genital skin homogenate
T2 sequence (P31213 1-254): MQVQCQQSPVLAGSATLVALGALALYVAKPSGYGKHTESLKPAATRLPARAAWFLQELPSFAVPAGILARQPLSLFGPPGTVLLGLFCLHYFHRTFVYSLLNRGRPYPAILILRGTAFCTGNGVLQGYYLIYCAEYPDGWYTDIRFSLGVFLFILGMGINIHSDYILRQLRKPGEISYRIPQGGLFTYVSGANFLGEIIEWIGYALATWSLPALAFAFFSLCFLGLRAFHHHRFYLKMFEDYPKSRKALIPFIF
The experiment in a line: 5α-reductase type 2 activity in genital skin homogenates. The format is biochemical. The settings on record: Genitalhaut-Homogenate, optimised conditions, pH 5.5. The source says: Nachfolgend sind beispielhafte Daten zur Progesteronrezeptorbindung, 5α-Reduktase-Typ2-Aktivität in Genitalhaut-Homogenaten und in vivo- Daten am Beispiel von (E)-17α-Fluor-3-oxo-estr-4-en-17β-carbaldehyd oxim aufgeführt

Experiment [3] addresses T3, PR-B (Homo sapiens, UniProt P06401).
T3 sequence (P06401 1-933): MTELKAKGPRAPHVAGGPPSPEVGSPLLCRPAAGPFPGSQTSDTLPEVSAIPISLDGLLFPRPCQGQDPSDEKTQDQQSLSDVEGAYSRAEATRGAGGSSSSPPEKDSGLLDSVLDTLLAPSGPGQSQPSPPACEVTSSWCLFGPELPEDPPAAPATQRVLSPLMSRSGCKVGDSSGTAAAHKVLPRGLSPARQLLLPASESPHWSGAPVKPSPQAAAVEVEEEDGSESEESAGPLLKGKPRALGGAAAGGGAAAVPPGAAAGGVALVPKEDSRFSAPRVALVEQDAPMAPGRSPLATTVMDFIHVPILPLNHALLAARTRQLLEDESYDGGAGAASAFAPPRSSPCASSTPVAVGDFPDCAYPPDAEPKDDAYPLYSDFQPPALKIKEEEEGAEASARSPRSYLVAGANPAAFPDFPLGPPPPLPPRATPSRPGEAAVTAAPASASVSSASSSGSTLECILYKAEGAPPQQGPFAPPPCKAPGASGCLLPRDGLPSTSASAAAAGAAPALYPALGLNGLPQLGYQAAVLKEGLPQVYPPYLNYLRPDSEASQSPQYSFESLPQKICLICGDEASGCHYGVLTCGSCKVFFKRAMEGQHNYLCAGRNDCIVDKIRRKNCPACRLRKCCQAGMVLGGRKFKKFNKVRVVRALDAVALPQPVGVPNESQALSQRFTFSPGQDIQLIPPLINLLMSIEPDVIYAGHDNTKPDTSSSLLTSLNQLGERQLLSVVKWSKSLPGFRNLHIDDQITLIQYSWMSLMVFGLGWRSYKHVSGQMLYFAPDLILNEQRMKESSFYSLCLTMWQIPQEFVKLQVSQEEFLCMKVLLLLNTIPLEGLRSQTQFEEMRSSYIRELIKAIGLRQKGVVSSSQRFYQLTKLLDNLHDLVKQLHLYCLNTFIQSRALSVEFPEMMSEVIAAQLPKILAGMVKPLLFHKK
Briefly: PR-B antagonism and agonism. It counts as cell-based. The source says: PR-B Antagonismus und Agonismus

In experiment [4] the test system is Maus. The experiment in a line: Gestagenic activity in the pregnancy maintenance test, mouse. It counts as in vivo.

A word on the IC50: it is the concentration that gives 50% inhibition. As for `C[C@]12CC[C@H]3[C@@H](CCC4=CC(=O)CC[C@@H]43)[C@@H]1CC[C@]2(F)/C=N/O` [Verbindung 7, (E)-17α-Fluor-3-oxo-estr-4-en-17β-carbaldehyd oxim], the “Relative Bindungsaffinität RBA[%]” value in experiment [1] is listed as 131 ± 9%. Moreover, the IC50 in experiment [2] was determined as 245 nM; in experiment [3] (antagonist mode, read-out: Antagonismus IC50), 0.339 nM. In addition, in experiment [3] (agonist mode, read-out: Agonismus IC50), the EC50 is 0.25 nM. Moreover, the “Rate der erhaltenen Graviditäten” value in experiment [4] (Dosis 0,03 mg/Tier/Tag) is recorded as 2/2; in experiment [4] (Dosis 0,3 mg/Tier/Tag) it was 3/3; in experiment [4] (Dosis 0,003 mg/Tier/Tag), 0/3.

For the origin of these results see patent publication EP1737880B1, “17ALPHA-FLUORO-17BETA-HYDROXI[…], A METHOD FOR PRODUCTION THEREOF AND PHARMACEUTICAL COMPOSITIONS COMPRISING SAID COMPOUNDS” (Bayer Schering Pharma Aktiengesellschaft, priority 2004, dated 2005).
